Data set [1] can be described thus: in vitro. The note with it: human. As for the experimental part:
(§1) Evaluating compound effects on the viability of human colon and small intestine cells. […] Evaluating compound effects on the viability of human colon and small intestine cells. Evaluation of compound cytotoxicities to FHC colon and FHs 74 Int small intestine cells were performed using Alamar Blue-based viability assays. […] FHs 74 Int cells were maintained in Hybri-care medium (ATCC 46-X) supplemented with 30 ng/mL recombinant epidermal growth factor (EGF) and 10% FBS (Midwest Scientific, USDAFBS).

A short description of data set [2]: in vitro. The note with it: human. As to the method:
as §1
The source holds these as a separate data set.

In another data set the test system is FHC colon cells. The data set is described as follows: in vitro. As to conditions: for CC50: human, 48 h. As for the experimental part: as §1
In data set [3] the test system is FHs 74 Int small intestine cells. In words: in vitro. As to conditions: for CC50: human, 48 h. As to the method: as §1

The results in this text go back to patent publication US20220009914A1, “Analogs of Nitrofuran Antibiotics to Combat Resistance” (The Trustees of Indiana University, priority 2020, published 2022).

With `COc1ccc(C(=O)NN)cc1` [Compound 42, reference compound], the CC50 at 48 h in “in vitro [1]” and in the data set “in vitro [2]” was more than 100 µM throughout.

Turning to `COc1ccc(C(=O)N/N=C/c2cccc3ccccc23)cc1` [Compound 33, 4-methoxy-N′-(naphthalen-1-ylmethylene)benzohydrazide], the CC50 at 48 h in the data set “in vitro [1]” and in the data set “in vitro [2]” was more than 100 µM throughout.

`O=C(N/N=C/c1ccc(O)c2ncccc12)c1ccc(O)cc1` [Compound 7, 4-hydroxy-N′-((8-hydroxyquinolin-5-yl)methylene)benzohydrazide]: the CC50 at 48 h in “in vitro [1]” was more than 100 µM; in “in vitro [2]”, 67 µM.

As for `O=C(N/N=C/c1ccc([N+](=O)[O-])o1)c1ccc(NS(=O)(=O)c2cccs2)cc1` [Compound 26, N-(4-(2-((5-nitrofuran-2-yl)methylene)hydrazine-1-carbonyl)phenyl)thiophene-2-sulfonamide], the CC50 at 48 h was more than 100 µM in “in vitro [1]” and 70 µM in “in vitro [2]”.

For the compound `COc1ccc(C(=O)N/N=C/c2ccc(O)cc2)cc1` [Compound 35, N′-(4-hydroxybenzylidene)-4-methoxybenzohydrazide], the CC50 at 48 h in “in vitro [1]” and in the data set “in vitro [2]” was more than 100 µM each time.

As to `O=C(N/N=C/c1cccc2ncccc12)c1ccccc1` [Compound 32, N′-(quinolin-5-ylmethylene)benzohydrazide], the CC50 at 48 h in “in vitro [1]” and in the data set “in vitro [2]” was more than 100 µM in each case.

As for `O=C(N/N=C/c1ccc(O)cc1)c1ccccc1` [Compound 36, N′-(4-hydroxybenzylidene)benzohydrazide], the CC50 at 48 h in “in vitro [1]” and in the data set “in vitro [2]” was more than 100 µM each time.

On to `O=C1CN(/N=C/c2ccc(O)c3ncccc23)C(=O)N1` [Compound 2, 1-(((8-hydroxyquinolin-5-yl)methylene)amino)imidazolidine-2,4-dione], for which the CC50 at 48 h in the data set “in vitro [1]” and in “in vitro [2]” was more than 100 µM in each case.

In the case of `COc1ccc(C(=O)N/N=C/c2ccc([N+](=O)[O-])o2)cc1` [Compound 20, 4-methoxy-N′-((5-nitrofuran-2-yl)methylene)benzohydrazide], in the data set with FHC colon cells, the “SI (CC50/EC50) Colon” value is more than 53 and the CC50 is more than 100 µM. Moreover, in data set [3], the “SI (CC50/EC50) Intestine” value is given as 40, the “cytotoxicity to human cells in words” value is on record as “low to no cytotoxicity” and the CC50 came out at 75 µM.

Consider `O=C(N/N=C/c1ccc(O)c2ccccc12)c1ccccc1` [Compound 30, N′-((4-hydroxynaphthalen-1-yl)methylene)benzohydrazide], for which the CC50 at 48 h in “in vitro [1]” and in the data set “in vitro [2]” was more than 100 µM each time.

Consider `COc1ccc(C(=O)N/N=C/c2cccc3ncccc23)cc1` [Compound 31, 4-methoxy-N′-(quinolin-5-ylmethylene)benzohydrazide], for which the CC50 at 48 h in “in vitro [1]” and in “in vitro [2]” was more than 100 µM throughout.

Turning to `O=C(N/N=C/c1ccc([N+](=O)[O-])o1)c1cccs1` [Compound 16, N′-((5-nitrofuran-2-yl)methylene)thiophene-2-carbohydrazide], in the data set with FHC colon cells, the “SI (CC50/EC50) Colon” value is recorded as 198 and the CC50 amounted to 83 µM. In data set [3], the “SI (CC50/EC50) Intestine” value is 168, the “cytotoxicity to human cells in words” value is given as “low to no cytotoxicity” and the CC50 was determined as 71 µM.

Consider `O=C(N/N=C/c1ccc([N+](=O)[O-])o1)c1ccccc1` [Compound 18, N′-((5-nitrofuran-2-yl)methylene)benzohydrazide], for which, in the data set on FHC colon cells, the “SI (CC50/EC50) Colon” value is more than 48 and the CC50 was more than 100 µM. Also, in data set [3], the “SI (CC50/EC50) Intestine” value came out at 45 and the CC50 was found to be 94 µM.

Regarding `O=C(N/N=C/c1ccc([N+](=O)[O-])o1)c1ccncc1` [Compound 19, N′-((5-nitrofuran-2-yl)methylene)isonicotinohydrazide], in the data set on FHC colon cells, the “SI (CC50/EC50) Colon” value came to 26 and the CC50 worked out at 61 µM. Further, in data set [3], the “SI (CC50/EC50) Intestine” value is on record as 38 and the CC50 came out at 90 µM.

As to `CCN(CC)S(=O)(=O)c1cccc(C(=O)N/N=C/c2ccc([N+](=O)[O-])o2)c1` [Compound 25, N,N-diethyl-3-(2-((5-nitrofuran-2-yl)methylene)hydrazine-1-carbonyl)benzenesulfonamide], the CC50 at 48 h in the data set “in vitro [1]” and in the data set “in vitro [2]” was more than 100 µM each time.

Consider `O=C(N/N=C/c1ccc(O)c2ncccc12)c1ccncc1` [Compound 6, N′-((8-hydroxyquinolin-5-yl)methylene)isonicotinohydrazide], for which the results for the CC50 at 48 h in the data set “in vitro [1]” and in the data set “in vitro [2]” were more than 100 µM and 75 µM, respectively.

With `COc1ccc(C(=O)N/N=C/c2ccc(O)c3ccccc23)cc1` [Compound 29, N′-((4-hydroxynaphthalen-1-yl)methylene)-4-methoxybenzohydrazide], the CC50 at 48 h in “in vitro [1]” and in the data set “in vitro [2]” was more than 100 µM in each case.

In the case of `COc1ccc(C(=O)N/N=C/c2ccco2)cc1` [Compound 39, N′-(furan-2-ylmethylene)-4-methoxybenzohydrazide], the CC50 at 48 h in “in vitro [1]” and in “in vitro [2]” was more than 100 µM throughout.

Turning to `O=C(N/N=C/c1ccccc1)c1ccccc1` [Compound 38, N′-benzylidenebenzohydrazide], the CC50 at 48 h in “in vitro [1]” and in the data set “in vitro [2]” was more than 100 µM in each case.

Consider `O=C(N/N=C/c1ccc(O)c2ncccc12)c1cccs1` [Compound 3, N′-((8-hydroxyquinolin-5-yl)methylene)thiophene-2-carbohydrazide], for which the CC50 at 48 h in the data set “in vitro [1]” turned out to be 85 µM; in the data set “in vitro [2]”, 86 µM.

As to `CCOc1ccc(S(=O)(=O)Nc2ccc(C(=O)N/N=C/c3ccc([N+](=O)[O-])o3)cc2)cc1` [Compound 28, 4-ethoxy-N-(4-(2-((5-nitrofuran-2-yl)methylene)hydrazine-1-carbonyl)phenyl)benzenesulfonamide], the CC50 at 48 h is 85 µM in “in vitro [1]” and more than 100 µM in “in vitro [2]”.

Regarding `COc1ccc(C(=O)N/N=C/c2ccccc2)cc1` [Compound 37, N′-benzylidene-4-methoxybenzohydrazide], the CC50 at 48 h in the data set “in vitro [1]” and in “in vitro [2]” was more than 100 µM each time.

On to `O=C(N/N=C/c1cccc2ccccc12)c1ccccc1` [Compound 34, N′-(naphthalen-1-ylmethylene)benzohydrazide], for which the CC50 at 48 h in “in vitro [1]” and in “in vitro [2]” was more than 100 µM throughout.

For `O=C(N/N=C/c1ccc([N+](=O)[O-])o1)c1ccc(NS(=O)(=O)c2ccc(Br)cc2)cc1` [Compound 27, 4-bromo-N-(4-(2-((5-nitrofuran-2-yl)methylene)hydrazine-1-carbonyl)phenyl)benzenesulfonamide], the results for the CC50 at 48 h in the data set “in vitro [1]” and in the data set “in vitro [2]” were 90 µM and more than 100 µM, respectively.
